Data reported in US20060153781A1, “Repair of dna mutagenic damage” (Novogen Research Pty Ltd, a Corporation, priority 2002, published 2006).
Several values for one entry are separate records, joined by “and”; a condition that tells them apart may be missing. Equal entries are not always repeated.

Legend:
Type in all cases: in vivo
p53 in the epidermis = assay: P53 staining in skin biopsies of human volunteers following UV irradiation
Method: (§1) Equol was applied to the skin of five human volunteers immediately after, and at 4 hours and 6 hours post-UV irradiation. A control lotion was also used containing no equol. Twenty-four hours after UV irradiation, skin biopsies were taken and MT production was measured using immunohistochemistry.
The skin biopsies from the five human volunteers from Example 2 were tested for P53 staining following UV irradiation.

CPDs in the epidermis = assay: Cyclobutane pyrimidine dimer formation in skin biopsies of human volunteers after UV irradiation (immunohistochemistry)
Method: as §1
The skin biopsies from the five human volunteers from Example 2 were tested for cyclobutane pyrimidine dimer formation using immunohistochemistry.

[1] = test system: metallothionein (MT) in the epidermis; assay: MT production in skin biopsies of human volunteers after UV irradiation (immunohistochemistry); conditions: 24 hrs after 2.5 MED SSUV
Method: as §1
Approximately half of the cells in the basal epidermis constitutively expressed MT at baseline, whereas almost none of the cells in the more superficial layers of the epidermis expressed MT. At 24 hrs after exposure to 2.5 MED SSUV, there were apparent differences in the expression of MT in the basal layers of the epidermis between sections treated with equol and those treated with DMSO in base lotion (vehicle). In all 5 participants, the expression of MT was higher in the skin treated with equol, with the magnitude of the difference ranging from +4% to +21%.

[2] = test system: cyclobutane pyrimidine dimers (CPD) in skin of hairless mice; assay: Induction of epidermal CPD-positive cells in skin of hairless mice exposed to SSUV (immunohistochemistry); conditions: for reduction in the number of CPD compared with control group (vehicle alone): equol lotion 20 μM for 7 days prior and 5 days after SSUV, p<0.05; for CPD + ve cells/linear cm: hairless mice; for reduction of dimers: equol applied immediately after SSUV exposure and continuing for 5 d
Excerpt: The effect of equol on the induction of CPD was examined in the skin of hairless mice (a standard model for human dermatological investigations) exposed to solar simulated ultraviolet radiation (SSUV). At various time points after SSUV, dorsal skin was excised, fixed for 6 hr in a standard fixing medium (HistoChoice™, Amersco Inc, Solon, Ohio, USA), processed and paraffin-embedded. Pyrimidine dimers were detected immunohistochemically using citric acid antigen retrieval and the H3 anti-pyrimidine dimer antibody. The number of dimer-positive cells was counted manually in 30 fields per mouse, at 40× magnification.

[3] = 24 hrs after 2.5 MED SSUV, equol 200 μM topical, one row per subject (five volunteers)
[4] = 24 hrs after 2.5 MED SSUV, lotion containing equol 200 μM, one row per subject (five volunteers)
[5] = equol 200 μM topical, one row per subject (five volunteers)

Oc1ccc(C2COc3cc(O)ccc3C2)cc1 (stereo not shown) [equol]
p53 staining, Basal epidermis, % positive cells (p53 in the epidermis; [3]): 22% and 8% and 11% and 6% and 26%
p53 staining, Basal epidermis, neg (cell count) (p53 in the epidermis; [3]): 161 and 172 and 250 and 140 and 118
p53 staining, Basal epidermis, pos (cell count) (p53 in the epidermis; [3]): 46 and 15 and 31 and 9 and 41
p53 staining, Total epidermis, % positive cells (p53 in the epidermis; [3]): 26% and 21% and 9% and 4% and 25%
p53 staining, Total epidermis, neg (cell count) (p53 in the epidermis; [3]): 270 and 337 and 500 and 287 and 227
p53 staining, Total epidermis, pos (cell count) (p53 in the epidermis; [3]): 94 and 87 and 50 and 13 and 76
p53 staining, Upper epidermis, % positive cells (p53 in the epidermis; [3]): 31% and 30% and 7% and 3% and 24%
p53 staining, Upper epidermis, neg (cell count) (p53 in the epidermis; [3]): 109 (2×) and 165 and 250 and 147
p53 staining, Upper epidermis, pos (cell count) (p53 in the epidermis; [3]): 48 and 72 and 19 and 4 and 35
percentage of p53 expression in upper and/or basal epidermis (in words) (p53 in the epidermis; 24 hrs after UV exposure, equol treated vs vehicle): reduced in four out of five equol treated subjects
reduction of percentage of p53 staining compared with vehicle controls (p53 in the epidermis; subjects N13PDO and N14GBO, 24 hrs after UV exposure, 'generally'): more than 50%
CPD staining, Basal epidermis, % positive cells (CPDs in the epidermis; [4]): 15% and 0% and 10% and 25% (2×)
CPD staining, Basal epidermis, neg (cell count) (CPDs in the epidermis; [4]): 94 and 279 and 181 and 134 and 125
CPD staining, Basal epidermis, pos (cell count) (CPDs in the epidermis; [4]): 16 and 1 and 21 and 44 and 41
CPD staining, Total epidermis, % positive cells (CPDs in the epidermis; [4]): 19% and 5% and 25% and 31% (2×)
CPD staining, Total epidermis, neg (cell count) (CPDs in the epidermis; [4]): 164 and 349 and 279 and 213 and 188
CPD staining, Total epidermis, pos (cell count) (CPDs in the epidermis; [4]): 39 and 18 and 92 and 94 and 85
CPD staining, Upper epidermis, % positive cells (CPDs in the epidermis; [4]): 25% and 20% and 42% and 39% and 41%
CPD staining, Upper epidermis, neg (cell count) (CPDs in the epidermis; [4]): 70 (2×) and 98 and 79 and 63
CPD staining, Upper epidermis, pos (cell count) (CPDs in the epidermis; [4]): 23 and 17 and 71 and 50 and 44
CPD-positive cells, equol lotion vs DMSO in base lotion (vehicle) (in words) (CPDs in the epidermis; 24 hrs after UV exposure, 4 out of 5 participants): proportionally less CPD-positive cells
CPD damage, data from all participants pooled (in words) (CPDs in the epidermis; at 24 hours, pooled participants): moderately lower levels of CPD damage
expression of MT in skin treated with equol vs vehicle (in words) ([1]; all 5 participants): higher
MT staining, Basal epidermis, % positive cells [1, 5]: 76% and 59% and 69% and 77% and 60%
MT staining, Basal epidermis, neg (cell count) [1, 5]: 118 and 188 and 239 and 154 and 157
MT staining, Basal epidermis, pos (cell count) [1, 5]: 380 and 271 and 531 and 522 and 233
MT staining, Total epidermis, % positive cells [1, 5]: 56% and 50% and 63% and 62% and 51%
MT staining, Total epidermis, neg (cell count) [1, 5]: 303 and 270 and 315 and 323 and 225
MT staining, Total epidermis, pos (cell count) [1, 5]: 382 and 271 and 539 and 527 and 234
MT staining, Upper epidermis, % positive cells [1, 5]: 1% (2×) and 0% and 10% and 3%
MT staining, Upper epidermis, neg (cell count) [1, 5]: 185 and 82 and 76 and 169 and 68
MT staining, Upper epidermis, pos (cell count) [1, 5]: 2 and 0 and 8 and 5 and 1
reduction in the number of CPD compared with control group (vehicle alone) ([2]; 1 hour after SSUV): 54%
CPD + ve cells/linear cm ([2]; 1 hr post-SSUV, equol lotion 20 μM daily for 7 days prior to and following 1×3 MED SSUV): 238 ± 22 cells/linear cm
reduction of dimers ([2]; 1 day post-irradiation): 23%
reduction in the number of CPD compared with control group (vehicle alone) ([2]; 24 hours after SSUV): 50%
CPD + ve cells/linear cm ([2]; 24 hr post-SSUV, equol lotion 20 μM daily for 7 days prior to and following 1×3 MED SSUV): 167 ± 17 cells/linear cm
reduction in the number of CPD compared with control group (vehicle alone) ([2]; 48 hours after SSUV): 26%
reduction of dimers ([2]; 2 d post-irradiation, data not shown): 42%
effect on dimer induction and repair (in words) ([2]; equol lotion 20 μM daily for 7 days prior to and following 1×3 MED SSUV): reduce the initial induction of dimers, and to enhance the rate of their repair
